How the values were obtained:
[1] = Hygroscopicity: rate of moisture absorption, Integrated Microbalance System; assay type: physicochemical; conditions: for % Weight Gain (Moisture Absorption): 25 °C; for hygroscopicity: statement in words, upon storage
Procedure: The rate of moisture absorption of Compound B and Compound C were tested individually in an Integrated Microbalance System, MODEL MB 300 G (VTI Corporation, Hialeah, Florida) using the accompanying Software Manual. Table 2(a) [table]

[2] = Relative solubilities in water, HCl and methanol; assay type: physicochemical
[3] = organic solvent or mixture, Solvent: methanol

| Compound | % Weight Gain (Moisture Absorption) ([1]; 0 % relative humidity) [%] | % Weight Gain (Moisture Absorption) ([1]; 10 % relative humidity) [%] | % Weight Gain (Moisture Absorption) ([1]; 15 % relative humidity) [%] | % Weight Gain (Moisture Absorption) ([1]; 20 % relative humidity) [%] | % Weight Gain (Moisture Absorption) ([1]; 25 % relative humidity) [%] | % Weight Gain (Moisture Absorption) ([1]; 30 % relative humidity) [%] | % Weight Gain (Moisture Absorption) ([1]; 35 % relative humidity) [%] | % Weight Gain (Moisture Absorption) ([1]; 40 % relative humidity) [%] | % Weight Gain (Moisture Absorption) ([1]; 45 % relative humidity) [%] | % Weight Gain (Moisture Absorption) ([1]; 50 % relative humidity) [%] | % Weight Gain (Moisture Absorption) ([1]; 55 % relative humidity) [%] | % Weight Gain (Moisture Absorption) ([1]; 60 % relative humidity) [%] | % Weight Gain (Moisture Absorption) ([1]; 65 % relative humidity) [%] | % Weight Gain (Moisture Absorption) ([1]; 70 % relative humidity) [%] | % Weight Gain (Moisture Absorption) ([1]; 75 % relative humidity) [%] | % Weight Gain (Moisture Absorption) ([1]; 80 % relative humidity) [%] | % Weight Gain (Moisture Absorption) ([1]; 85 % relative humidity) [%] | hygroscopicity [1] | solubility ([2]; Solvent: 0.1% HCl) [mg/mL] | solubility ([2]; Solvent: Water) [mg/mL] | also measured |
| --- | --- | --- | --- | --- | --- | --- | --- | --- | --- | --- | --- | --- | --- | --- | --- | --- | --- | --- | --- | --- | --- |
| CCCC1(CCC)CCC2(CCN(CCCN(CC)CC)C2)CC1.Cl.Cl [Compound B, N,N-diethyl-8,8-dipropyl-2-azaspiro[4.5]decane-2-propanamine dihydrochloride, reference compound] | 0 | 0.20 | 1.81 | 2.17 | 2.84 | 3.74 | 3.15 | 3.30 | 4.74 | 5.49 | 9.07 | 9.26 | 9.50 | 15.47 | 31.30 | 36.53 | 44.16 | hygroscopic | > 100 | > 100 | solubility [2, 3]: > 100 mg/mL |
| CCCC1(CCC)CCC2(CCN(CCCN(CC)CC)C2)CC1.O=C(O)/C=C\C(=O)O.O=C(O)/C=C\C(=O)O [Compound C, N,N-diethyl-8,8-dipropyl-2-azaspiro[4.5]decane-2-propanamine dimaleate] | 0 | -0.21 | -0.18 | -0.08 | -0.12 | -0.08 | -0.08 | -0.08 | -0.05 | -0.04 | 0.04 | 0.1 | 0.18 | 0.41 | 0.56 | 0.89 | 1.70 | far less hygroscopic | > 100 | > 100 | % Weight Gain (Moisture Absorption) ([1]; 90 % relative humidity): 5.37%; % Weight Gain (Moisture Absorption) ([1]; 95 % relative humidity): 42.88%; solubility [2, 3]: > 100 mg/mL |

Reference: patent publication EP0753512B1, “N,N,-diethyl-8,8-dipropyl-2-azaspiro[4.5]decane-2-propanamin] dimaleate salt” (AnorMED Inc, priority 1995, dated 1997)
